According to patent publication US20070178544A1, “Anti fk778antibodies and high sensitive immunoassay methods” (priority 2004, published 2007):

Assay: Selection of an immunogen: titer of antibody in sera of immunized mice
Format: in vivo
Settings: immunogen conjugated with bovine thyroglobulin, with FCA, Balb/c mice; four (FR267471, FR266831) or seven (FR270531) immunizations
Protocol: To obtain the selective antibody against FK778, two kinds of immunogens which were conjugated (FR267471 and FR266831) with bovine thyroglobulin (Sigma-Aldrich Corp.) mixed with Freund's complete adjuvant (FCA) (Difco) were immunized in hyperimmune Balb/c mice. After four times immunizations, the titer of antibody against the FR267471-BSA or the FR266831-BSA in sera was measured by enzyme-linked immunosorbent assay. […] To obtain immunogens having higher titer than the two immunogens, another type of immunogen FR270531 was synthesized. […] Accordingly, the present inventors have used FR270531 as an immunogen to produce antibodies directed to FK778, and FR267471 and FR266831 as positive and negative control to select the FK778 antibody specifically binding to the FK778 substance.

Row | Structure (SMILES) | titer of antibody in sera
1 | N#C/C(C(=O)Nc1ccc(C(F)(F)F)cc1)=C(/O)CCCC(=O)O [FR266831, (5Z)-6-cyano-5-hydroxy-7-oxo-7-{[4-(trifluoromethyl)phenyl]amino}-5-heptenoic acid] | not sufficient
2 | C#CCC/C(O)=C(\C#N)C(=O)Nc1ccc(OCCCCCC(=O)O)cc1 [FR267471, 6-(4-{[(2Z)-2-cyano-3-hydroxy-2-hepten-6-ynoyl]amino}phenoxy)hexanoic acid] | not sufficient
3 | C#CCC/C(O)=C(\C#N)C(=O)Nc1ccc(OCCCCCC(=O)Oc2c(F)c(F)c(F)c(F)c2F)cc1 [FR270531, pentafluorophenyl 6-(4-{[(2Z)-2-cyano-3-hydroxy-2-hepten-6-ynoyl]amino}phenoxy)hexanoate] | higher than those of FR267471 and FR266831
